In general, IC50 refers to the concentration needed to halve the response being measured.

The experiment relates to cancer cells. As to the kind of experiment: antiproliferative activity (anticancer properties). The settings on record: cell line not stated; cisplatin in the same experiment; read-out: antiproliferative activity indicated by the cell survival half-life factor (IC50). Type of experiment: cell-based. The method, then:
Three examples of bi-heterometallic compounds which would be obtained from that compound present better activity as shown by their IC50: IC50 Ru-Zn: 9.07±0.27; IC50 Ru-Co: 5.40±0.19; IC50 Ru-Ni: 7.15±0.30 µM. Ru-Zn = [Ru(η^6-C10H14)(Cl2)-µ-dmoPTA-1κP:2κ^2N,N'-ZnCl2]. Ru-Co = [Ru(η^6-C10H14)(Cl2)-µ-dmoPTA-1κP:2κ^2N,N'-CoCl2]. Ru-Ni = [Ru(η^6-C10H14)(Cl2)-µ-dmoPTA-1κP:2κ^2N,N'-NiCl2].
As for `N.N.[Cl][Pt][Cl]` [cisplatin, reference compound], the half-inhibitory concentration (IC50) came to 45.6 ± 8.08 µM. Turning to [Ru(η^6-C10H14)(Cl2)(HdmoPTA)](OSO2CF3), the IC50 is 32.09 ± 0.3 µM. “[Ru(η^6-C10H14)(Cl2)-µ-dmoPTA-1κP:2κ^2N,N'-CoCl2] [Ru-Co]”: the IC50 amounted to 5.4 ± 0.19 µM.

As for “[Ru(η^6-C10H14)(Cl2)-µ-dmoPTA-1κP:2κ^2N,N'-NiCl2] [Ru-Ni]”, the concentration for half-maximal inhibition (IC50) amounted to 7.15 ± 0.3 µM. Consider “[Ru(η^6-C10H14)(Cl2)-µ-dmoPTA-1κP:2κ^2N,N'-ZnCl2] [Ru-Zn]”, for which the half-maximal inhibitory concentration (IC50) was 9.07 ± 0.27 µM.
